# Measured values from the supplement of paper PMC4862054.
# Experiments:
# Settings in all cases: incubation time: 72 h
# BT-474 [1] = assay: normalised response (% of control), CellTox Green; higher = less cell death (100 = DMSO, 0 = benzethonium chloride kill control)
# Summary of the method: (§1)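 CellTox Green fluorescence (485/520 nm) and, after 10 min at room temperature, CellTiter-Glo luminescence were read from breast cancer cell lines incubated 72 h in 384-well plates. Cells were seeded as 20 µl suspension onto compound at 5 concentrations in 10-fold steps over a 10,000-fold range chosen per compound. Each plate was normalised to 0.1 % DMSO (100) and a positive kill control (0). Values are normalised signals, one per concentration.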
# BT-549 [2] = assay: as above
# Summary of the method: as §1
# CAL-120 [3] = assay: as above
# Summary of the method: as §1
# CAL-148 [4] = assay: as above
# Summary of the method: as §1
# CAL-51 [5] = assay: as above
# Summary of the method: as §1
# CAL-85-1 [6] = assay: as above
# Summary of the method: as §1
# DU-4475 [7] = assay: as above
# Summary of the method: as §1
# HCC1143 [8] = assay: as above
# Summary of the method: as §1
# HCC1599 [9] = assay: as above
# Summary of the method: as §1
# HCC1937 [10] = assay: as above
# Summary of the method: as §1
# HDQ-P1 [11] = assay: as above
# Summary of the method: as §1
# Hs578T [12] = assay: as above
# Summary of the method: as §1
# MCF-10A [13] = assay: as above
# Summary of the method: as §1
# MDA-MB-231 [14] = assay: as above
# Summary of the method: as §1
# MDA-MB-436 [15] = assay: as above
# Summary of the method: as §1
# MDA-MB-453 [16] = assay: as above
# Summary of the method: as §1
# MDA-MB-468 [17] = assay: as above
# Summary of the method: as §1
# MFM-223 [18] = assay: as above
# Summary of the method: as §1
# BT-474 [19] = assay: normalised response (% of control), CellTiter-Glo; higher = more viable cells (100 = DMSO, 0 = benzethonium chloride kill control)
# Experimental: (§2)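 DSRT, 72 h incubation, CellTox Green / CellTiter-Glo readout. Signal is normalised to DMSO and benzethonium chloride controls. Value is the normalised response at dose 3.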
# BT-549 [20] = assay: as above
# Experimental: as §2
# CAL-120 [21] = assay: as above
# Experimental: as §2
# CAL-148 [22] = assay: as above
# Experimental: as §2
# CAL-51 [23] = assay: as above
# Experimental: as §2
# CAL-85-1 [24] = assay: as above
# Experimental: as §2
# DU-4475 [25] = assay: as above
# Experimental: as §2
# HCC1143 [26] = assay: as above
# Experimental: as §2
# HCC1599 [27] = assay: as above
# Experimental: as §2
# HCC1937 [28] = assay: as above
# Experimental: as §2
# HDQ-P1 [29] = assay: as above
# Experimental: as §2
# Hs578T [30] = assay: as above
# Experimental: as §2
# MCF-10A [31] = assay: as above
# Experimental: as §2
# MDA-MB-231 [32] = assay: as above
# Experimental: as §2
# MDA-MB-436 [33] = assay: as above
# Experimental: as §2
# MDA-MB-453 [34] = assay: as above
# Experimental: as §2
# MDA-MB-468 [35] = assay: as above
# Experimental: as §2
# MFM-223 [36] = assay: as above
# Experimental: as §2
# SK-BR-3 = assay: as above
# Experimental: as §2
Structure (SMILES),normalised response (BT-474 [1]),normalised response (BT-549 [2]),normalised response (CAL-120 [3]),normalised response (CAL-148 [4]),normalised response (CAL-51 [5]),normalised response (CAL-85-1 [6]),normalised response (DU-4475 [7]),normalised response (HCC1143 [8]),normalised response (HCC1599 [9]),normalised response (HCC1937 [10]),normalised response (HDQ-P1 [11]),normalised response (Hs578T [12]),normalised response (MCF-10A [13]),normalised response (MDA-MB-231 [14]),normalised response (MDA-MB-436 [15]),normalised response (MDA-MB-453 [16]),normalised response (MDA-MB-468 [17]),normalised response (MFM-223 [18]),normalised response (BT-474 [19]),normalised response (BT-549 [20]),normalised response (CAL-120 [21]),normalised response (CAL-148 [22]),normalised response (CAL-51 [23]),normalised response (CAL-85-1 [24]),normalised response (DU-4475 [25]),normalised response (HCC1143 [26]),normalised response (HCC1599 [27]),normalised response (HCC1937 [28]),normalised response (HDQ-P1 [29]),normalised response (Hs578T [30]),normalised response (MCF-10A [31]),normalised response (MDA-MB-231 [32]),normalised response (MDA-MB-436 [33]),normalised response (MDA-MB-453 [34]),normalised response (MDA-MB-468 [35]),normalised response (MFM-223 [36]),normalised response (SK-BR-3)
CO[C@H]1C[C@@H]2CC[C@@H](C)[C@@](O)(O2)C(=O)C(=O)N2CCCC[C@H]2C(=O)O[C@H]([C@H](C)C[C@@H]2CC[C@@H](OCCO)[C@H](OC)C2)CC(=O)[C@H](C)/C=C(\C)[C@@H](O)[C@@H](OC)C(=O)[C@H](C)C[C@H](C)/C=C/C=C/C=C/1C [Everolimus] (1 nM),96.7%,79.8%,106%,85.8%,94.4%,109%,96.3%,79.1%,89.6%,99.9%,83.1%,67.1%,80%,105%,98.3%,103%,121%,102%,91.9%,63.6%,77.8%,72%,72.1%,69.3%,83%,72.4%,98.2%,75.2%,91.9%,70.6%,91.6%,82.9%,83.7%,82.7%,57.1%,71.6%,65.9%
Cc1ccc(NC(=O)c2ccc(CN3CCN(C)CC3)cc2)cc1Nc1nccc(-c2cccnc2)n1 [Imatinib] (100 nM),99.8%,104%,96.8%,,106%,102%,102%,63.2%,108%,112%,111%,62.7%,70.4%,119%,110%,102%,110%,101%,99%,109%,106%,111%,107%,97.9%,103%,104%,97%,98%,98.6%,106%,104%,96.8%,103%,111%,106%,107%,105%
Nc1nc(OCc2cc(Br)cs2)c2[nH]cnc2n1 [Lomeguatrib] (100 nM),102%,95.1%,100%,63.5%,92.9%,103%,101%,96.5%,100%,104%,,100%,97.3%,110%,98.3%,106%,134%,103%,98.8%,99.2%,99.2%,102%,84.8%,101%,101%,106%,111%,101%,106%,99%,106%,98.2%,102%,95.2%,95.4%,100%,106%
COc1ccccc1S(=O)(=O)Nc1ccc2c(c1)CN(C)C(=O)N2 [PFI-1] (100 nM),105%,118%,106%,,102%,115%,110%,82.6%,111%,51.5%,78.4%,96.8%,92.9%,123%,79.4%,115%,125%,106%,97.4%,99.4%,106%,105%,79%,96.6%,100%,100%,87.7%,91.4%,94.5%,99.6%,111%,99.5%,104%,105%,96.8%,104%,105%
